This note sets out measurements from paper PMC6693643 (ACS chemical biology, 2017).

The target in assay [1] is T1, MtuATP-PRT (Mycobacterium tuberculosis, UniProt P9WMN1).
In assay [2] the target is T1, MtuATP-PRT. Kind of assay: competitive kinetic isotope effects, scintillation counting. The note with it: reverse reaction; co-substrate PRATP; alternative to pyrophosphate. It counts as biochemical.

T1 sequence (P9WMN1 whole entry): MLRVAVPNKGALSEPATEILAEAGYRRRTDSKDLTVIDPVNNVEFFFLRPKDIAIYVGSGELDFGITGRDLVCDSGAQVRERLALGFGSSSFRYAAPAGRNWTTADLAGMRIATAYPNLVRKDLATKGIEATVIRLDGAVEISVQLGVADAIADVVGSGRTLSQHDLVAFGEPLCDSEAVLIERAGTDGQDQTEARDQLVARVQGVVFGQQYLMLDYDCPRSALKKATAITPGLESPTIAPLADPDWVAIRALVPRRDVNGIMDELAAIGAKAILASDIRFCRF

Turning to `Nc1ncnc2c1ncn2[C@@H]1O[C@H](COP(=O)(O)OP(=O)(O)OP(=O)(O)O)[C@@H](O)[C@H]1O` [ATP], on MtuATP-PRT [1], the “X-ray crystal structure (co-crystallisation)” value is on record as “a structure with ATP bound to MtuATP-PRT (PDB: 5U99) was obtained”.
In the case of `O=C(O)CP(=O)(O)O` [phosphonoacetic acid], the “competitive kinetic isotope effects, scintillation counting” value at MtuATP-PRT [2] was “the ATP-PRT catalyzed reaction was studied using phosphonoacetic acid (PA) as an alternative”.
